Experimental data reported in patent US20090023759A1, “Quinazoline Derivatives as Inhibitors of EGF and/or erbB2 Receptor Tyrosine Kinase” (priority 2005, published 2009).

Experiments:
EGFR tyrosine kinase = biological target: T1, EGFR tyrosine kinase (Homo sapiens, UniProt P00533); experiment: Test (a) protein tyrosine kinase phosphorylation assay, EGFR; type: biochemical; conditions: ATP at Km concentration; read-out: IC50 Test (a): Inhibition of EGFR tyrosine kinase protein phosphorylation
T1 construct: Recombinant intracellular fragments of EGFR, erbB2 and erbB4; made in house; host or cells: baculovirus/Sf21 insect cells (cleared lysate used)
Protocol: (§1) a) Protein Tyrosine Kinase phosphorylation Assays
(§2) This test measures the ability of a test compound to inhibit the phosphorylation of a tyrosine containing polypeptide substrate by EGFR, erbB2 and erbB4 tyrosine kinase enzyme.
(§3) Recombinant intracellular fragments of EGFR, erbB2 and erbB4 (accession numbers X00588, X03363 and L07868 respectively) were cloned and expressed in the baculovirus/Sf21 system. […]
(§4) Constitutive kinase activity of these recombinant proteins was determined by their ability to phosphorylate a synthetic peptide (made up of a random co-polymer of Glutamic Acid, Alanine and Tyrosine in the ratio of 6:3:1). […]
(§5) The immobilised phospho-peptide product of the reaction was detected by immunological methods. […] After further washing, HRP activity in each well of the plate was measured colorimetrically using 22′-Azino-di-[3-ethylbenzthiazoline sulfonate (6)]diammonium salt crystals (ABTS™ from Roche) as a substrate.
(§6) Quantification of colour development and thus enzyme activity was achieved by the measurement of absorbance at 405 nm on a Molecular Devices ThermoMax microplate reader. Kinase inhibition for a given compound was expressed as an IC50 value. […] The range of phosphorylation was calculated from the positive (vehicle plus ATP) and negative (vehicle minus ATP) control values.

erbB2 tyrosine kinase = biological target: T2, erbB2 tyrosine kinase (Homo sapiens, UniProt P04626); experiment: Test (a) protein tyrosine kinase phosphorylation assay, erbB2; type: biochemical; conditions: ATP at Km concentration; read-out: IC50 Test (a): Inhibition of erbB2 tyrosine kinase protein phosphorylation
T2 construct: Recombinant intracellular fragments of EGFR, erbB2 and erbB4; made in house; host or cells: baculovirus/Sf21 insect cells (cleared lysate used)
Protocol: as §1, §2, §3, §4, §5, §6

[1] = biological target: T3, erbB2 in a MCF7 derived cell line (Clone 24 cells) (Homo sapiens, UniProt P04626); experiment: Test (c) Clone 24 phospho-erbB2 cell assay; type: cell-based; conditions: 4 hours with compound, read-out: IC50 Test (c): Inhibition of erbB2 tyrosine kinase protein phosphorylation
T3 construct: a cell line that overexpresses full length wild type erbB2 protein; expressed in transfected cells
Protocol: c) Clone 24 Phospho-erbB2 Cell Assay
This immunofluorescence end point assay measures the ability of a test compound to inhibit the phosphorylation of erbB2 in a MCF7 (breast carcinoma) derived cell line which was generated by transfecting MCF7 cells with the full length erbB2 gene using standard methods to give a cell line that overexpresses full length wild type erbB2 protein (hereinafter ‘Clone 24’ cells).
Clone 24 cells were cultured in Growth Medium (phenol red free Dulbecco's modified Eagle's medium (DMEM) containing 10% foetal bovine serum, 2 mM glutamine and 1.2 mg/ml G418) in a 7.5% CO2 air incubator at 37° C. […] Cell density was measured using a haemocytometer and viability was calculated using Trypan Blue solution before being further diluted in Growth Medium and seeded at a density of 1×10^4 cells per well (in 100 μl) into clear bottomed 96 well plates (Packard, No. 6005182). […]
Immunostaining was performed at room temperature. […] Plates were analysed within six hours of completing the immunostaining.
The Fluorescence signal is each well was measured using an Acumen Explorer Instrument (Acumen Bioscience Ltd.), a plate reader that can be used to rapidly quantitate features of images generated by laser-scanning. […]

T3 sequence (P04626 23-1255): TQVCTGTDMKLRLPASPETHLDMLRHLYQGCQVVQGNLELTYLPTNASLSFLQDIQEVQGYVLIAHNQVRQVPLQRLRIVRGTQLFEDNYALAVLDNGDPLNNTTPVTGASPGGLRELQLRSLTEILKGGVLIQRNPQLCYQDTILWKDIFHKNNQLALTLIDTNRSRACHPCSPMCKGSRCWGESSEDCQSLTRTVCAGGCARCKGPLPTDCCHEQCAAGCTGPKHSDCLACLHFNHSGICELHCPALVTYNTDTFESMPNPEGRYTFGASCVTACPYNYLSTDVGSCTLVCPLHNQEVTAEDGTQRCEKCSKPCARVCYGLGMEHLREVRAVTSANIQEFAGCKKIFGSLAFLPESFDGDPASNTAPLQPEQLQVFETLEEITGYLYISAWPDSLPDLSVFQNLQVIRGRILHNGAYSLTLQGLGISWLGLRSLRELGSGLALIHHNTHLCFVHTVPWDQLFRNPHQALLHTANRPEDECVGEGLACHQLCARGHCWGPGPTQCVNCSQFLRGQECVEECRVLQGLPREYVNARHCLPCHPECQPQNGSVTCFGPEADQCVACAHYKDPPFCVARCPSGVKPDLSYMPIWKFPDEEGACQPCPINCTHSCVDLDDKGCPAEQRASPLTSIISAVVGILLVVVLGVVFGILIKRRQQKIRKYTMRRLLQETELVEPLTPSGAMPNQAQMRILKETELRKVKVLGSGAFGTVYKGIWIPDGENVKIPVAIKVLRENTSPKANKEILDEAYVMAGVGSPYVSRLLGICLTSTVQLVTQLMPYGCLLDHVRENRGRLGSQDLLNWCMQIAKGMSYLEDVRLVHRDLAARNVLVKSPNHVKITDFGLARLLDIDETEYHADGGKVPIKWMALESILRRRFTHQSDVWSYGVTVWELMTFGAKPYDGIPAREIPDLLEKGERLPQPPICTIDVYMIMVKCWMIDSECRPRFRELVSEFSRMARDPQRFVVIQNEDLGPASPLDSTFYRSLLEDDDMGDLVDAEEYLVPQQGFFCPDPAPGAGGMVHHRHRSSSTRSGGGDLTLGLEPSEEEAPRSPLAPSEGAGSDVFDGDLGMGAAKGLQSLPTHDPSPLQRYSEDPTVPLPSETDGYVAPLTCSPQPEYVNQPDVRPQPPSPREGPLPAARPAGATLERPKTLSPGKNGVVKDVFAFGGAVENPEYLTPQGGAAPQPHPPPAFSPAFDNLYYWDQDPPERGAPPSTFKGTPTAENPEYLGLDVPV
T1 sequence (P00533 669-1210 limits assumed): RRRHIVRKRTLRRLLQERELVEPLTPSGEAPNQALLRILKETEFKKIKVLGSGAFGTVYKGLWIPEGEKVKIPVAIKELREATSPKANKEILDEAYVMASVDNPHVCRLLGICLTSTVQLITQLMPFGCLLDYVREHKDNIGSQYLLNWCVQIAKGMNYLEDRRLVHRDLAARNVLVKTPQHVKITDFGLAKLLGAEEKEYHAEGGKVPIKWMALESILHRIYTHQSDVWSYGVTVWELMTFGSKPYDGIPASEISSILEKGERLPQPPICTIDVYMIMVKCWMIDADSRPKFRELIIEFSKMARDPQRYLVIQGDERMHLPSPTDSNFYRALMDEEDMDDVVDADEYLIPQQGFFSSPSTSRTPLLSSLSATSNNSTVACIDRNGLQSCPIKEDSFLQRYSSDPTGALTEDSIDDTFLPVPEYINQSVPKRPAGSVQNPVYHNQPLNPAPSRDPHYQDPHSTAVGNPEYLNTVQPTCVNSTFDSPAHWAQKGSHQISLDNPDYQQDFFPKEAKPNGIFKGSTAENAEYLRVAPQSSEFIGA
T2 sequence (P04626 676-1255 limits assumed): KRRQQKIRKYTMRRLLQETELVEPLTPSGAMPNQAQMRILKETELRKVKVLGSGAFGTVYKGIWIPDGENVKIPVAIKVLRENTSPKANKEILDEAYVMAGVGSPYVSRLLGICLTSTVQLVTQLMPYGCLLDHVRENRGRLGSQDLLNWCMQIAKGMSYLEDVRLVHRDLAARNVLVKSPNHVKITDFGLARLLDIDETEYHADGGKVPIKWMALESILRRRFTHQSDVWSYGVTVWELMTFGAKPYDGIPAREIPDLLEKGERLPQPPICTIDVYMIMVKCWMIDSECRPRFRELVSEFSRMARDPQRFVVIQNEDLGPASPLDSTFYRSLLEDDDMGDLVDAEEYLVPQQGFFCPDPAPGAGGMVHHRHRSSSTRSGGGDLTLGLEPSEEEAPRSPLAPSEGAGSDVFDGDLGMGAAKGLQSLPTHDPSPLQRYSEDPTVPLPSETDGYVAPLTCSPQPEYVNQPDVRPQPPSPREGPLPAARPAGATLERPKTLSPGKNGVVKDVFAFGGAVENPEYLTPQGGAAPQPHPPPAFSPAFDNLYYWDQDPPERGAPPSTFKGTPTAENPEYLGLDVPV

SMILES | IC50 (EGFR tyrosine kinase) | IC50 (erbB2 tyrosine kinase) | IC50 [1]
C[C@H](CN(C)C(=O)CO)Oc1cccc2ncnc(Nc3ccc4c(ccn4Cc4ccccn4)c3)c12 [Example 1, 2-Hydroxy-N-methyl-N-{(2R)-2-[(4-{[1-(pyridin-2-ylmethyl)-1H-indol-5-yl]amino}quinazolin-5-yl)oxy]propyl}acetamide] | 0.78 µM | 0.071 µM | 1.01 µM
C[C@H](COc1cccc2ncnc(Nc3ccc4c(ccn4Cc4ccccn4)c3)c12)N(C)C(=O)CO [Example 2, 2-Hydroxy-N-methyl-N-{(R)-1-methyl-2-[4-(1-pyridin-2-ylmethyl-1H-indol-5-ylamino)-quinazolin-5-yloxy]-ethyl}-acetamide] | 0.063 µM | 0.005 µM | 0.002 µM
